# Patent US9427415B2, “Methods and compositions for modifying sensorial perception” (The Procter & Gamble Company, priority 2014, dated 2016)
# Read-outs that look alike come from different tables or passages of the source.
# How the values were obtained:
# [1] = target: T1, human TRPA1 (Homo sapiens, UniProt O75762, K186N/R3C/R58T); assay: Intracellular calcium (Fluo-4, FLIPR) activation of TRPA1 cells by GRAS compounds; type: cell-based; conditions: for activation at 1000 µM / activation at 100 µM: read-out: A1 activation, % of agonist value;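 for all read-outs here: TRPA1-expressing cells, fluorescence read on a FLIPR Tetra (ex 488 nm, em 514 nm) every 2 s for 10 min after compound addition, baseline subtracted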
# T1 construct: expressed in transfected cells; pcDNA3 control cells
# [2] = test system: TRPA1V1; assay: Intracellular calcium (Fluo-4, FLIPR) activation of TRPA1V1 cells (co-expressing TRPA1 and TRPV1) by GRAS compounds; type: cell-based, human;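 note: HEK293 cells co-expressing TRPA1 and TRPV1, fluorescence read at 488/514 nm after baseline subtraction, recorded every 2 s over 10 min, ionomycin 10 µM and buffer as controls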
# [3] = target: T2, human TRPV1 (Homo sapiens, UniProt Q8NER1, M315I/T336M); assay: Intracellular calcium (Fluo-4, FLIPR) activation of TRPV1 cells by GRAS compounds; type: cell-based; conditions: for activation at 1000 µM / activation at 100 µM: read-out: V1 activation, % of agonist value; for TRPV1 activation selectivity, in words: statement in description, see Table 1(i);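 for all read-outs here: TRPV1-expressing cells, FLIPR fluorescence at 488/514 nm with baseline subtracted, sampled every 2 s for 10 min after adding compound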
# T2 construct: expressed in transfected cells; pcDNA3 control cells
# [4] = Table 1(b), 1 mM, relative to AITC 30 μM
# [5] = Table 1(b), 1 mM, relative to capsaicin 350 nM
# [6] = Table 1(a), 1 mM, relative to AITC 30 μM, average of three plates
# [7] = Table 1(a), 1 mM, relative to capsaicin 350 nM, average of three plates
# [8] = Table 1(i), relative to AITC 30 μM, […]
# [9] = Table 1(i), 100 μM (*), relative to AITC 30 μM or capsaicin 350 nM depending on compound, […]
# [10] = Table 1(i), relative to capsaicin 350 nM, […]
# [11] = Table 1(e), relative to AITC 30 μM
# [12] = Table 1(e), 100 μM (*), relative to AITC 30 μM
# [13] = Table 1(c), 1 mM, relative to AITC 30 μM
# T2 sequence (Q8NER1 whole entry M315I/T336M): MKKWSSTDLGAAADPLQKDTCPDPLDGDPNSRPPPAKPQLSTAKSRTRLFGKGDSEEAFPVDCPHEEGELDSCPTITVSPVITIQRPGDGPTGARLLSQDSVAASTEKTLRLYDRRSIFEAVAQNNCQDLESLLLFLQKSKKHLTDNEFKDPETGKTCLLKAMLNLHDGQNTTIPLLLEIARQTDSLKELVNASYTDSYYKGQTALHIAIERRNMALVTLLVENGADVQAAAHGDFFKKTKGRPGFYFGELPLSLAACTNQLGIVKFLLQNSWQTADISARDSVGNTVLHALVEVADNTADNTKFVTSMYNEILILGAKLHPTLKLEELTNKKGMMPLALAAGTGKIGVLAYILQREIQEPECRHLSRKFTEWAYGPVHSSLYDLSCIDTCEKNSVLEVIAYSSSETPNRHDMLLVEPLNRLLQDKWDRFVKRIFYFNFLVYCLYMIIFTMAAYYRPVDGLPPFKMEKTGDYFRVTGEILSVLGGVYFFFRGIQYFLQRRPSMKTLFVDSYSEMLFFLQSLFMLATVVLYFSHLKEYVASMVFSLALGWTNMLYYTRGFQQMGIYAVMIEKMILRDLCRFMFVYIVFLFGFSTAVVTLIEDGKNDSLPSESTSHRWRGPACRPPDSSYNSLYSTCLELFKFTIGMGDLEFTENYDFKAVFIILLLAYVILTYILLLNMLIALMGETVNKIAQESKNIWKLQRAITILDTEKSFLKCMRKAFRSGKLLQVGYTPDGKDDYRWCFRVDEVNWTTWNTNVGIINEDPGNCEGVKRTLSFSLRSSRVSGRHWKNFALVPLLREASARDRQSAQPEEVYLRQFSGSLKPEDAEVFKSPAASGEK
# T1 sequence (O75762 whole entry R3C/R58T/K186N): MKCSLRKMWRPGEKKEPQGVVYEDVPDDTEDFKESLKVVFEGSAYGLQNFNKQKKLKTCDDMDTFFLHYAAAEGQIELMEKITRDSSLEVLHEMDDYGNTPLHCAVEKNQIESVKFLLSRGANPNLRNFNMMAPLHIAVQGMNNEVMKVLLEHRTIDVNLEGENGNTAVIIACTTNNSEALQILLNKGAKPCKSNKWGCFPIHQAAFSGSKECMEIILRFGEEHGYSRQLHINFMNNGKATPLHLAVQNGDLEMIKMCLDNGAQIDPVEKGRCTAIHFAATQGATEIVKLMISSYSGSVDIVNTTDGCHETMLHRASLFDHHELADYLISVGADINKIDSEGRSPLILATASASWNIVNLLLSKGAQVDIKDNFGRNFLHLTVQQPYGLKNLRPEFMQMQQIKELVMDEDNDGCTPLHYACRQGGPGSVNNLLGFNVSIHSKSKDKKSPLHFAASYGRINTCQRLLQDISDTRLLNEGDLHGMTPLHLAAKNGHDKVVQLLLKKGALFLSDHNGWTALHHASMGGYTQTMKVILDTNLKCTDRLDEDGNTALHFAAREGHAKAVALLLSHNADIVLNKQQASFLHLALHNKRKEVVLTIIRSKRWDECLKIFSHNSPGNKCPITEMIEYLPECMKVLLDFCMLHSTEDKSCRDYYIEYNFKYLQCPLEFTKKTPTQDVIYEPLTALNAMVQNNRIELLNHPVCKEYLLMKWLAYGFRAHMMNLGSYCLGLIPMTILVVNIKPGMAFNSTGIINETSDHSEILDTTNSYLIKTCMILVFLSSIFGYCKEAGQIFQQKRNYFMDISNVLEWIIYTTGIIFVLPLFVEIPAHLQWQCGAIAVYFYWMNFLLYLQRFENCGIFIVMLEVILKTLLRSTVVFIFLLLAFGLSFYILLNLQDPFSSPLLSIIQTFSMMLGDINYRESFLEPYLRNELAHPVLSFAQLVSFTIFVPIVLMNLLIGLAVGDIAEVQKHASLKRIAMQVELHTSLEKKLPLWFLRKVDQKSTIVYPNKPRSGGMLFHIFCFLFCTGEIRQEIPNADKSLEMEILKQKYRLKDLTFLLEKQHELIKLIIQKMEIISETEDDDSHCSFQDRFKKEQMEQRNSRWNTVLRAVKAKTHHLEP
compound,measurement,setting,value
CCCCCC/C=C/C=O [(E)-2-Nonenal],activation at 1000 µM,[1]; [4],130%
same,"A1V1 activation, % of agonist value",[2]; [4],61.8%
same,activation at 1000 µM,[3]; [5],89%
CCC(S)C(C)=O (stereo not shown) [3-Mercapto-2-pentanone],activation at 1000 µM,[1]; [6],92%
same,activation at 100 µM,"[1]; Table 1(c), relative to AITC 30 μM",103%
same,"A1V1 activation, % of agonist value",[2]; [6],72.6%
same,"A1V1 activation, % of agonist value","[2]; Table 1(c), 100 μM (*), relative to AITC 30 μM",100%
same,activation at 1000 µM,[3]; [7],59.2%
Cc1ccc(C(C)C)cc1O [Carvacrol],activation at 1000 µM,[1]; [4],115%
same,"A1V1 activation, % of agonist value",[2]; [4],134.1%
same,activation at 1000 µM,[3]; [5],84.6%
CC(=O)/C=C/C=C(\C)CCC=C(C)C [Pseudoionone],"A1 activation, % of agonist value",[1]; [6],105.5%
same,"A1V1 activation, % of agonist value",[2]; [6],127.2%
same,"V1 activation, % of agonist value",[3]; [7],20.76%
"CC1=NC(C)OC1C (stereo not shown) [2,4,5-Trimethyl-3-oxazoline]",activation at 100 µM,[1]; [8],2.1%
same,"A1V1 activation, % of agonist value",[2]; [9],4.1%
same,activation at 100 µM,[3]; [10],101%
same,"TRPV1 activation selectivity, in words",[3],TRPV1 activators which do not modulate TRPA1 or TRPA1V1
CC(C)C(C=O)c1ccccc1 (stereo not shown) [3-Methyl-2-Phenylbutyraldehyde],activation at 1000 µM,[1]; [6],90.6%
same,"A1V1 activation, % of agonist value",[2]; [6],93.08%
same,activation at 1000 µM,[3]; [7],75.8%
CCCCCCC=O [Heptaldehyde],activation at 100 µM,[1]; [8],4.3%
same,"A1V1 activation, % of agonist value",[2]; [9],2.4%
same,activation at 100 µM,[3]; [10],65.3%
same,"TRPV1 activation selectivity, in words",[3],TRPV1 activators which do not modulate TRPA1 or TRPA1V1
O=C1NS(=O)(=O)c2ccccc21 [Saccharin],activation at 1000 µM,[1],92.6%
same,"A1V1 activation, % of agonist value",[2],93.25%
same,activation at 1000 µM,[3],80.8%
CCc1ccco1 [2-Ethylfuran],activation at 100 µM,[1]; [8],1.2%
same,"A1V1 activation, % of agonist value",[2]; [9],1.8%
same,activation at 100 µM,[3]; [10],58.7%
same,"TRPV1 activation selectivity, in words",[3],TRPV1 activators which do not modulate TRPA1 or TRPA1V1
"CCCCOC(=O)c1ccc(O)cc1 [Butylparaben, Butyl 4-hydroxybenzoate]",activation at 1000 µM,[1]; [6],105%
same,activation at 100 µM,[1]; [11],98.7%
same,"A1V1 activation, % of agonist value",[2]; [6],98.1%
same,"A1V1 activation, % of agonist value",[2]; [12],127.3%
same,activation at 1000 µM,[3]; [7],79.1%
C=Cc1ccc(O)c(OC)c1 [2-Methoxy-4-vinylphenol],activation at 1000 µM,[1]; [6],74.8%
same,"A1V1 activation, % of agonist value",[2]; [6],81.90%
same,activation at 1000 µM,[3]; [7],20.7%
CC(C)=CCCC(C)CCO (stereo not shown) [Citronellol],activation at 1000 µM,[1]; [4],102%
same,"A1V1 activation, % of agonist value",[2]; [4],34.4%
same,activation at 1000 µM,[3]; [5],106%
CC1=C(O)C(=O)CO1 [4-Hydroxy-5-methyl-3-furanone],activation at 1000 µM,[1]; [6],58%
same,"A1V1 activation, % of agonist value",[2]; [6],38%
same,activation at 1000 µM,[3]; [7],40.5%
CC/C=C\C/C=C\C/C=C\CCCCCCCC(=O)OC [Methyl linolenate],activation at 1000 µM,[1]; [6],108%
same,"A1V1 activation, % of agonist value",[2]; [6],104%
same,activation at 1000 µM,[3]; [7],31%
COc1cc(/C=C/C(=O)CC(=O)/C=C/c2ccc(O)c(OC)c2)ccc1O [Curcumin],activation at 1000 µM,[1]; [4],95.3%
same,activation at 100 µM,[1]; [11],102%
same,"A1V1 activation, % of agonist value",[2]; [4],171.6%
same,"A1V1 activation, % of agonist value",[2]; [12],150.3%
same,activation at 1000 µM,[3]; [5],43.2%
CCCCc1ccco1 [2-Butylfuran],activation at 1000 µM,[1]; [6],68.5%
same,"A1V1 activation, % of agonist value",[2]; [6],62.77%
same,activation at 1000 µM,[3]; [7],20.2%
CCCCC=CC(C)=O [3-Octen-2-one],activation at 1000 µM,[1]; [6],52.7%
same,"A1V1 activation, % of agonist value",[2]; [6],45.60%
same,activation at 1000 µM,[3]; [7],30%
CCCCC/C=C/CO [Trans-2-Octen-1-ol],activation at 1000 µM,[1]; [6],118%
same,"A1V1 activation, % of agonist value",[2]; [6],103.2%
same,activation at 1000 µM,[3]; [7],26%
CC(C)C(=O)OCc1ccc2c(c1)OCO2 [Piperonyl isobutyrate],activation at 1000 µM,[1]; [4],61%
same,"A1V1 activation, % of agonist value",[2]; [4],82.33%
same,activation at 1000 µM,[3]; [5],30%
"CCCCCC/C=C/C=C/C=O [Trans,trans-2,4-undecadien-1-al]",activation at 100 µM,"[1]; Table 1(b), relative to AITC 30 μM",74%
same,activation at 1000 µM,[1]; [13],86.4%
same,"A1V1 activation, % of agonist value","[2]; Table 1(b), 100 μM (*), relative to AITC 30 μM",38.4%
same,"A1V1 activation, % of agonist value",[2]; [13],85.4%
same,activation at 100 µM,"[3]; Table 1(b), relative to capsaicin 350 nM",87.5%
COc1cc(CCC(C)=O)ccc1O [Vanillylacetone],activation at 1000 µM,[1]; [4],22.3%
same,"A1V1 activation, % of agonist value",[2]; [4],37.75%
same,activation at 1000 µM,[3]; [5],60%
CCCSSc1ccoc1C [Propyl 2-methyl-3-furyl disulfide],activation at 1000 µM,[1]; [6],210%
same,activation at 1000 µM,[1]; [13],266%
same,"A1V1 activation, % of agonist value",[2]; [6],194.3%
same,"A1V1 activation, % of agonist value",[2]; [13],242.5%
same,activation at 1000 µM,[3]; [7],25%
